Measurements as given in patent US20110021547A1, “Substantially Pure and a Stable Crystalline Form of Bosentan” (ACTAVIS GROUP PTC EHF, priority 2008, published 2011).
Where two headings read alike, the source gives them in different places.

Tests used:
[1] = Tapped density; assay type: physicochemical
[2] = cited from earlier work
[3] = Polymorphic stability of form A5 after compression or particle size reduction; assay type: physicochemical
Protocol: The X-Ray powder diffraction was measured by an X-ray powder Diffractometer equipped with a Cu-anode (λ=1.54 Angstrom), X-ray source operated at 40 kV, 40 mA and a Ni filter is used to strip K-beta radiation. Two-theta calibration is performed using an NIST SRM 1976, Corundum standard. The sample was analyzed using the following instrument parameters: measuring range=3-45° 2θ; step width=0.01579°; and measuring time per step=0.11 second.

[4] = Storage stability of crystalline form A5 (temperature / relative humidity); assay type: physicochemical
Protocol: The term “remains stable”, as defined herein, refers to lack of formation of impurities, while being stored as described herein. The stability of crystalline form A5 is measured by maintaining crystalline form A5 at a temperature of about 40° C. at a relative humidity of about 75% for at least about 1 month, specifically for a period of 6 months, or at a temperature of about 25° C. at a relative humidity of about 60% for at least about 6 months.

[5] = Particle size distribution by laser diffraction (Malvern Master Sizer 2000); assay type: physicochemical
From the text: As used herein, DX means that X percent of the particles have a diameter less than a specified diameter D. Thus, a D90 or d(0.9) of less than 300 microns means that 90 volume-percent of the micronized particles in a composition have a diameter less than 300 microns.
As used herein, “Particle Size Distribution (P.S.D)” means the cumulative volume size distribution of equivalent spherical diameters as determined by laser diffraction in Malvern Master Sizer 2000 equipment or its equivalent. “Mean particle size distribution, i.e., D50” correspondingly, means the median of said particle size distribution.

Row | Compound | Particle Size Distribution d(0.1) [5] [microns] | Particle Size Distribution d(0.5) [5] [microns] | Particle Size Distribution d(0.9) [5] | also measured
1 | COc1ccccc1Oc1c(NS(=O)(=O)c2ccc(C(C)(C)C)cc2)nc(-c2ncccn2)nc1OCCO [Example 5, Bosentan] |  |  |  | Tapped density [1]: 0.626 g/mL
2 | COc1ccccc1Oc1c(NS(=O)(=O)c2ccc(C(C)(C)C)cc2)nc(-c2ncccn2)nc1OCCO [Bosentan, p-tert-butyl-N-[6-(2-hydroxyethoxy)-5-(2-methoxyphenoxy)-2-(2-pyrimidinyl)-4-pyrimidinyl]benzenesulfonamide monohydrate] |  |  |  | solubility in aqueous solution at low pH ([2]; pH 1.1): 0.1 mg/100 ml; solubility in aqueous solution at low pH ([2]; pH 4.0): 0.1 mg/100 ml; solubility in aqueous solution at low pH ([2]; pH 5.0): 0.2 mg/100 ml; solubility in water ([2]; water): 1.0 mg/100 ml
3 | COc1ccccc1Oc1c(NS(=O)(=O)c2ccc(C(C)(C)C)cc2)nc(-c2ncccn2)nc1OCCO [Example 4, Bosentan] |  |  |  | Tapped density [1]: 0.714 g/mL
4 | COc1ccccc1Oc1c(NS(=O)(=O)c2ccc(C(C)(C)C)cc2)nc(-c2ncccn2)nc1OCCO [bosentan crystalline form A5, Bosentan] |  |  |  | crystalline form and stability after mechanical particle size reduction ([3]; cutting, chipping, crushing, milling, grinding, micronizing): remains in the same crystalline faun and stable; crystalline form and stability after compression ([3]; pressure of about 7.5 tons/cm^2 for 10 to 15 minutes, checked by X-ray diffractometer): remains in the same crystalline form and stable; stability on storage, tendency to convert to other forms ([4]; about 25° C., relative humidity about 60%, at least about 6 months): more stable; crystalline form and stability on storage ([4]; about 25±2° C., relative humidity about 60±5%, 6 months): remains in the same crystalline form and stable; crystalline form and stability on storage ([4]; about 25±2° C., relative humidity about 60±5%, at least one month): remains in the same crystalline form and stable; stability on storage, tendency to convert to other forms ([4]; about 40° C., relative humidity about 75%, at least about 1 month, specifically 6 months): more stable; crystalline form and stability on storage ([4]; about 40±2° C., relative humidity about 75±5%, 6 months): remains in the same crystalline form and stable; crystalline form and stability on storage ([4]; about 40±2° C., relative humidity about 75±5%, at least one month): remains in the same crystalline form and stable
5 | COc1ccccc1Oc1c(NS(=O)(=O)c2ccc(C(C)(C)C)cc2)nc(-c2ncccn2)nc1OCCO [Example 9C, Bosentan] | 7.89 | 31.92 | 69.43 microns | 
6 | COc1ccccc1Oc1c(NS(=O)(=O)c2ccc(C(C)(C)C)cc2)nc(-c2ncccn2)nc1OCCO [Example 3, Bosentan] |  |  |  | Tapped density [1]: 0.668 g/mL
7 | COc1ccccc1Oc1c(NS(=O)(=O)c2ccc(C(C)(C)C)cc2)nc(-c2ncccn2)nc1OCCO [Example 9E, Bosentan] | 17.03 | 58.84 | 127.11 microns | 
8 | COc1ccccc1Oc1c(NS(=O)(=O)c2ccc(C(C)(C)C)cc2)nc(-c2ncccn2)nc1OCCO [Example 8, Bosentan] |  |  | less than 60 microns | 
9 | COc1ccccc1Oc1c(NS(=O)(=O)c2ccc(C(C)(C)C)cc2)nc(-c2ncccn2)nc1OCCO [Example 6, Bosentan] |  |  |  | Tapped density [1]: 0.667 g/mL
10 | COc1ccccc1Oc1c(NS(=O)(=O)c2ccc(C(C)(C)C)cc2)nc(-c2ncccn2)nc1OCCO [Example 7, Bosentan] | 13.39 | 85.61 | 231.09 microns | 
11 | COc1ccccc1Oc1c(NS(=O)(=O)c2ccc(C(C)(C)C)cc2)nc(-c2ncccn2)nc1OCCO [Example 9D, Bosentan] | 14.85 | 53.73 | 109.61 microns | 
12 | COc1ccccc1Oc1c(NS(=O)(=O)c2ccc(C(C)(C)C)cc2)nc(-c2ncccn2)nc1OCCO [Example 9, Bosentan] |  |  | less than 130 microns | 
13 | COc1ccccc1Oc1c(NS(=O)(=O)c2ccc(C(C)(C)C)cc2)nc(-c2ncccn2)nc1OCCO [Example 9B, Bosentan] | 11.76 | 38.96 | 78.25 microns | 
14 | COc1ccccc1Oc1c(NS(=O)(=O)c2ccc(C(C)(C)C)cc2)nc(-c2ncccn2)nc1OCCO [Example 9A, Bosentan] |  | 28.95 | 120.88 microns | 
